Laboratory results published in patent publication US12564634B2, “Highly dispersible zinc phthalocyanine-silica nanotubes and preparation method therefor” (priority 2019, dated 2026).

Experiment: Dispersion stability analysis with LUMiSizer (transmittance profile under centrifugation)
Format: physicochemical
Settings: aqueous dispersion, 10 min ultrasonication, 5 s intervals, total 55 s, steeper slope = lower dispersion stability, Test Group I value matches the sample stored one day after dispersing
Description: In this experimental example, the dispersion stability of highly dispersible zinc phthalocyanine-silica nanotubes was tested. The dispersion stability analysis was performed with the use of LUMiSizer™.
In this regard, the dispersion stability refers to the stability of a dispersed material, and the longer the dispersion state is maintained after being dispersed, the higher the dispersion stability. As a measurement method, there is a method of directly observing the change in dispersion stability of the sample. In this regard, to shorten the observation time, there is a method of letting the sample to experience harsh conditions such as centrifugal force or heating so that the change in dispersion stability of the sample can be checked in a quick time (refer to “Procedures to accelerate the evaluation of long-term stability”, ISO/TR 13097). For example, the sample may undergo centrifugation so that relatively quick sedimentation of particles can occur compared to gravity sedimentation. In this case, layer separation occurs. […] A detector detects the IR rays having transmitted through the sample, and the detected rays are represented in real time as a transmittance profile. It is a method of performing comparative analysis of dispersion stability between samples by quantifying the generation rate, pattern, etc. of such a profile. […]

[Zn+2].c1ccc2c(c1)-c1nc-2nc2[n-]c(nc3nc([n-]c4nc(n1)-c1ccccc1-4)-c1ccccc1-3)c1ccccc21 [Control Group, zinc phthalocyanine]
increase slope of the average value of the transmittance profile (rate in %/s): 17.70 %/s
